Converted amounts (≈) assume the structure as drawn. “And” between values parts separate entries of the source, which are not always exact repeats. Identical values can stand only once. One block for each compound: values may come before it.
Columns and labels:
Experiment in all cases: ≥ marks a high value that may be exact or a test limit, other limits are often not marked, values filed in µg/mL are converted to µM
[1] = test system: Pseudomonas aeruginosa ATCC 27853
[2] = test system: Streptococcus agalactiae BNCC 185941
Escherichia coli K88 = test system: Escherichia coli K88
[3] = test system: Lacticaseibacillus rhamnosus 1.0936
[4] = test system: Escherichia coli ATCC 25922
[5] = test system: Salmonella enterica subsp. enterica serovar Pullorum C79-13
[6] = test system: Staphylococcus aureus ATCC 29213
[7] = test system: Lacticaseibacillus rhamnosus 8014
[8] = test system: Staphylococcus aureus ATCC 43300
[9] = test system: Lacticaseibacillus rhamnosus 1.0911
[10] = test system: Escherichia coli O157:H7 CICC 21530
[11] = test system: Salmonella enterica subsp. enterica serovar Choleraesuis CVCC 503
[12] = test system: Salmonella enterica subsp. enterica serovar Typhimurium ATCC 14028
[13] = test system: Lacticaseibacillus rhamnosus 1.9021
[14] = test system: Staphylococcus epidermidis ATCC 12228
[15] = test system: Pseudomonas aeruginosa PAO1
[16] = test system: Klebsiella pneumoniae ST258
Escherichia coli ST131 = test system: Escherichia coli ST131
Escherichia coli JM109 = test system: Escherichia coli JM109
Escherichia coli BL21 = test system: Escherichia coli BL21
[17] = test system: Klebsiella pneumoniae CCRC 10694
[18] = test system: Staphylococcus aureus CCRC 15211
Staphylococcus xylosus = test system: Staphylococcus xylosus
Citrobacter koseri = test system: Citrobacter koseri
[19] = test system: Lactobacillus delbrueckii subsp. bulgaricus
[20] = test system: Staphylococcus aureus CCRC 12652
Salmonella enterica = test system: Salmonella enterica
Enterococcus faecium = test system: Enterococcus faecium
[21] = test system: Bifidobacterium adolescentis
[22] = test system: Vibrio parahaemolyticus CCRC 10806
[23] = test system: Salmonella typhimurium CCRC 12947
Pseudomonas aeruginosa = test system: Pseudomonas aeruginosa
[24] = test system: Legionella pneumophila Lens
[25] = test system: Staphylococcus pseudintermedius
[26] = test system: Pseudomonas aeruginosa PA14
Micrococcus luteus A270 = test system: Micrococcus luteus A270
[27] = test system: Escherichia coli DH5alpha
[28] = test system: Escherichia coli K12 MG1655

MIC [1]: 64 µM (≈ 76.8 µg/mL)
MIC [2]: ≥ 128 µM
MIC (Escherichia coli K88): 16 µM (≈ 19.2 µg/mL)
MIC [3]: ≥ 128 µM
MIC [4]: 32 µM and 64 µM
MIC [5]: 8 µM (≈ 9.6 µg/mL)
MIC [6]: 128 µM (≈ 154 µg/mL)
MIC [7]: ≥ 64 µM
MIC [8]: 64 µM (≈ 76.8 µg/mL)
MIC [9]: 16 µM (≈ 19.2 µg/mL)
MIC [10]: 16 µM (≈ 19.2 µg/mL)
MIC [12]: 64 µM (≈ 76.8 µg/mL)
MIC [13]: ≥ 32 µM
MIC [14]: 128 µM (≈ 154 µg/mL)
MIC [15]: 32 µM (≈ 38.4 µg/mL)
SMILES: CC(C)C[C@H](NC(=O)CNC(=O)[C@H](CC(C)C)NC(=O)[C@H](CS)NC(=O)[C@H](CC(C)C)NC(=O)CNC(=O)[C@H](CC(C)C)NC(=O)[C@H](CCCCN)NC(=O)[C@@H](N)CCCCN)C(=O)N[C@@H](CCCCN)C(=O)N[C@@H](CCCCN)C(N)=O [KKLGLCLGLKK]
MIC [11]: ≥ 64 µM

MIC [24]: 2.44 µM (≈ 6.2 µg/mL)
SMILES: CC[C@H](C)[C@H](NC(=O)[C@H](CC(C)C)NC(=O)CNC(=O)[C@H](CCCCN)NC(=O)[C@@H](NC(=O)[C@@H](NC(=O)[C@H](CCC(=O)O)NC(=O)[C@H](Cc1ccccc1)NC(=O)[C@H](Cc1ccccc1)NC(=O)[C@H](CCCCN)NC(=O)[C@H](C)NC(=O)[C@@H](NC(=O)[C@@H](NC(=O)[C@H](CC(=O)O)NC(=O)[C@H](C)NC(=O)[C@@H](N)CCSC)C(C)C)[C@@H](C)CC)[C@@H](C)CC)C(C)C)C(=O)N[C@@H](CC(=O)O)C(=O)N[C@@H](CCC(N)=O)C(=O)N[C@@H](Cc1ccccc1)C(=O)N[C@H](C(=O)N[C@@H](CCC(N)=O)C(=O)N[C@@H](CCCCN)C(=O)O)[C@@H](C)O [MADVIAKFFEIVKGLIDQFTQK]

Second part, the compound before the results:

SMILES: CC(C)C[C@H](NC(=O)[C@H](Cc1c[nH]c2ccccc12)NC(=O)[C@H](CCCCN)NC(=O)[C@H](CC(C)C)NC(=O)[C@H](Cc1c[nH]c2ccccc12)NC(=O)[C@H](CCCCN)NC(=O)[C@H](CCCN=C(N)N)NC(=O)[C@H](Cc1c[nH]c2ccccc12)NC(=O)[C@H](CCCCN)NC(=O)[C@@H](N)CCCCN)C(=O)N[C@@H](C)C(=O)N[C@@H](CCCCN)C(=O)N[C@@H](CCCCN)C(N)=O [KKWRKWLKWLAKK]
MIC [16]: 4 µM (≈ 7.19 µg/mL)
MIC [4]: 2 µM (≈ 3.6 µg/mL)
MIC (Escherichia coli ST131): 2 µM (≈ 3.6 µg/mL)

SMILES: CC[C@H](C)[C@H](NC(=O)[C@H](CO)NC(=O)[C@H](CCCCN)NC(=O)[C@H](Cc1c[nH]c2ccccc12)NC(=O)[C@H](CCCCN)NC(=O)[C@@H](N)CC(C)C)C(=O)N[C@H](C(=O)N[C@@H](CO)C(=O)N[C@@H](Cc1c[nH]c2ccccc12)C(=O)N[C@@H](C)C(=O)N[C@@H](CCCCN)C(=O)N[C@@H](CCCCN)C(=O)N[C@H](C(=O)N[C@@H](CC(C)C)C(N)=O)C(C)C)C(C)C [LKWKSIVSWAKKVL]
MIC (Escherichia coli JM109): 0.593 µM (≈ 0.999 µg/mL)
MIC (Escherichia coli BL21): 1.68 µM (≈ 2.83 µg/mL)
MIC [17]: 4.74 µM (≈ 8 µg/mL)
MIC [18]: 3.35 µM (≈ 5.65 µg/mL)
MIC (Staphylococcus xylosus): 0.296 µM (≈ 0.5 µg/mL)
MIC (Citrobacter koseri): 0.839 µM (≈ 1.41 µg/mL)
MIC [19]: ≥ 75.9 µM
MIC [20]: 3.35 µM (≈ 5.65 µg/mL)
MIC (Salmonella enterica): 3.35 µM (≈ 5.65 µg/mL)
MIC (Enterococcus faecium): ≥ 75.9 µM
MIC [21]: ≥ 75.9 µM
MIC [22]: 2.37 µM (≈ 4 µg/mL)
MIC [23]: 2.37 µM (≈ 4 µg/mL)
MIC (Pseudomonas aeruginosa): 26.8 µM (≈ 45.2 µg/mL)

SMILES: CC(=O)N[C@@H](CCCN=C(N)N)C(=O)N[C@@H](CCCN=C(N)N)C(=O)N[C@@H](CCCN=C(N)N)C(=O)N[C@@H](Cc1c[nH]c2ccccc12)C(=O)N[C@@H](CCCN=C(N)N)C(=O)N[C@@H](CCCCN)C(=O)N[C@@H](CCCN=C(N)N)C(=O)N[C@@H](CCCN=C(N)N)C(=O)N[C@@H](Cc1c[nH]c2ccccc12)C(=O)N[C@@H](Cc1c[nH]c2ccccc12)C(=O)N[C@@H](Cc1c[nH]c2ccccc12)C(N)=O [RRRWRKRRWWW]
MIC [1]: 17.5 µM (≈ 32.7 µg/mL)
MIC [25]: 24.8 µM (≈ 46.3 µg/mL)
MIC [6]: 17.5 µM (≈ 32.7 µg/mL)
MIC (Pseudomonas aeruginosa): 24.8 µM (≈ 46.3 µg/mL)

SMILES: CC(C)C[C@H](NC(=O)CNC(=O)[C@@H](NC(=O)[C@H](CC(C)C)NC(=O)[C@H](C)NC(=O)[C@@H](N)C(C)C)[C@@H](C)O)C(=O)N[C@H](C(=O)N[C@H](C(=O)N[C@@H](C)C(=O)N[C@@H](CCC(=O)O)C(=O)N[C@@H](Cc1ccc(O)cc1)C(=O)N[C@@H](Cc1ccccc1)C(=O)N[C@@H](CCCN=C(N)N)C(=O)O)C(C)C)[C@@H](C)O [VALTGLTVAEYFR]
MIC [1]: 7.8 µM (≈ 11.2 µg/mL)
MIC [26]: 15.6 µM (≈ 22.5 µg/mL)
MIC (Micrococcus luteus A270): 1.9 µM (≈ 2.74 µg/mL)
MIC [27]: 3.9 µM (≈ 5.61 µg/mL)
MIC [28]: 7.8 µM (≈ 11.2 µg/mL)
MIC [6]: 3.9 µM (≈ 5.61 µg/mL)

— DBAASP
